As a reminder, the IC50 is the concentration needed to halve the response being measured.

Molecules are shown by their SMILES.

For test [1], the system named is MMP-13 production in human normal articular chondrocytes. The experiment in a line: Measurement of MMP-13 production inhibitory activity in rhIL-1β-stimulated human normal articular chondrocytes (ELISA). The class given is cell-based. As to conditions: Chondrocyte, rhIL-1β 0.1 ng/mL, 24 hr, MMP-13 in culture supernatant by ELISA. As for the experimental part:
Measurement of MMP-13 Production Inhibitory Activity
Human normal articular chondrocytes (Camblex) were grown in a chondrocyte growth medium (CGM: Camblex), and the cells were suspended in a chondrocyte differentiation medium (CDM: Camblex) and plated on a 96 well plate at 2×10^4 cells/well (150 μL/well). After culturing for 3 days under 37° C., 5% CO2 conditions, the culture medium was exchanged to 0.1% BSA added α-modification of Eagle's (α-MEM: Gibco), and the cells were cultured for 4 hr. The compound was added thereto and, after culture for 1 hr, recombinant human IL-1β (rhIL-1β: R&D systems) was added at 0.1 ng/mL. After culture for 24 hr, the culture supernatant was recovered, and the concentration of MMP-13 in the culture supernatant was measured by the ELISA method (Amersham).
A general note: In an ELISA, binding on a coated surface is turned into a signal by an enzyme label.

Test [2] addresses T1, active form p38 MAP kinase (Homo sapiens, UniProt Q16539).
T1 construct: made in house; host or cells: Sf-21 insect cells, baculovirus BAC-HP38 co-infected with BAC-caMKK3
The test can be described thus: Measurement of the p38 MAP kinase inhibitory activity (32P uptake into Myelin Basic Protein). The class given is biochemical. As to conditions: 260 ng active form p38 MAP kinase, 1 μg Myelin Basic Protein, 2.5 μM ATP solution, 30° C. for 60 minutes. As for the experimental part: (1) Cloning of Human p38 MAP Kinase Gene and Preparation of Recombinant Baculovirus
Cloning of human p38 MAP kinase gene was performed by a PCR method using a primer set P38-U:
(3) Preparation of Active Form p38 MAP Kinase
The Sf-21 cells were seeded on 100 ml Sf-900II SFM medium (GIBCOBRL) to 1×10^6 cells/mL and cultured at 27° C. for 24 hours. After each 0.2 mL of the virusstock BAC-HP38 of recombinant Baculovirus and BAC-caMKK3 were added, the culturing was further performed for 48 hours. After the cells were separated from the culturing solution by centrifugation (3000 rpm, 10 min), the cells were washed twice with PBS. After the cells were suspended in 10 ml Lysis buffer (25 mM HEPES (pH 7.5), 1% Triton X, 130 mM NaCl, 1 mM EDTA, 1 mM DTT, 25 mM β-glycerophosphate, […], 1 mM APMSF, 1 mM Sodium orthovanadate), the cells were lysed by treating twice with a homogenizer (POLYTRON) at 20000 rpm for 2 minutes. By using Anti-FLAG M2 Affinity Gel (Eastman Chemical), active form p38 MAP kinase was purified from the supernatant obtained by centrifugation (40000 rpm, 45 minutes).
(4) Measurement of the p38 MAP Kinase Inhibitory Activity
2.5 μL of a test compound dissolved in DMSO was added to 37.5 μL reaction solution (25 mM HEPES (pH 7.5), 10 mM Magnesium Acetate) containing 260 ng active form p38 MAP kinase and 1 μg Myelin Basic Protein, which was maintained at 30° C. for 5 minutes. The reaction was initiated by adding 10 μL ATP solution (2.5 μM ATP, 0.1 μCi [g-^32P]ATP). After the reaction was performed at 30° C. for 60 minutes, the reaction was stopped by adding 50 μL 20% TCA solution. After the reaction solution was allowed to stand at 0° C. for 20 minutes, an acid insoluble fraction was transferred to GF/C filter (Packard Japan) using Cell Harvester (Packard Japan) and washed with 250 mM H3PO4. After drying at 45° C. for 60 minutes, […] Microscint 0 (Packard Japan) was added and the radioactivity was measured with a TopCount (Packard Japan). The concentration (IC50 value) necessary for inhibiting uptake of ^32P into an acid insoluble fraction by 50% was calculated with PRISM 2.01 (Graphpad Software).

For test [3], the system named is TNF-α production in THP-1 cells. The test can be described thus: Measurement of TNF-α production inhibitory activity in LPS-stimulated THP-1 cells (ELISA). The class given is cell-based. As to conditions: Homo sapiens, LPS 5 μg/mL, 4 hours, TNF-α in supernatant by ELISA. As for the experimental part: Measurement of TNF-α Production Inhibitory Activity
After THP-1 cells which had been cultured in PRMI 1640 medium (manufactured by Life Technologies, Inc.) containing 1% non-activated bovine fetal serum (manufactured by Life Technologies, Inc., U.S.A.) and 10 mM HEPES (pH 7.5) was plated on a 96-well plate to 1×10^5 cells/well, 1 μL test compound dissolved in DMSO was added to there. After incubation at 37° C. for 1 hour in a CO2 incubator, LPS (Wako Pure Chemicals) was added to the final concentration 5 μg/mL. After cultured at 37° C. for 4 hours in a CO2 incubator, the supernatant was obtained by centrifugation. The concentration of TNF-α in the supernatant was measured with ELISA (R&D System, Quantikine Kit). The concentration (IC50 value) necessary for inhibiting TNF-α production by 50% was calculated by PRIMS 2.01 (Graphpad Software).

T1 sequence (Q16539 whole entry): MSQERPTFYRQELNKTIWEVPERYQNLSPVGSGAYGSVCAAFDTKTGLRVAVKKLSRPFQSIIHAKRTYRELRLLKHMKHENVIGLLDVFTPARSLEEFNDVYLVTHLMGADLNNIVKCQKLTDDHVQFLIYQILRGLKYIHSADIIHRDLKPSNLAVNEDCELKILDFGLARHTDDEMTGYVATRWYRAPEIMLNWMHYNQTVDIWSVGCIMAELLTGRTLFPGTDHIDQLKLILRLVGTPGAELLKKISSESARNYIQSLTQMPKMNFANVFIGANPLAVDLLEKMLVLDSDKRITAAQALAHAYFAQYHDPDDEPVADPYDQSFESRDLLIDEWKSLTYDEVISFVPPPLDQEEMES

Take `Cc1cc(-c2nc3cccnn3c2-c2ccnc(NC(=O)NCCC#N)c2)ccc1F` [Example 51-14, N-(2-cyanoethyl)-N′-{4-[2-(4-fluoro-3-methylphenyl)imidazo[1,2-b]pyridazin-3-yl]pyridin-2-yl}urea]: the IC50 in test [1] came out at 0.032 µM; in test [2], 0.0049 µM; in test [3], 0.001 µM.
In the case of `Cc1cccc(-c2nc3cccnn3c2-c2ccnc(NC(=O)C3CC3)c2)c1` [Example compound 20-10, N-{4-[2-(3-methylphenyl)imidazo[1,2-b]pyridazin-3-yl]pyridin-2-yl}cyclopropanecarboxamide], the concentration for half-maximal inhibition (IC50) in test [1] came out at 0.025 µM; in test [2] it was 0.0097 µM; in test [3], 0.0054 µM.
The corresponding values for `CSCC(=O)Nc1cc(-c2c(-c3ccc(F)c(C)c3)nc3cccnn23)ccn1` [Example 42-6, N-{4-[2-(4-fluoro-3-methylphenyl)imidazo[1,2-b]pyridazin-3-yl]pyridin-2-yl}-2-(methylthio)acetamide] are 0.011 µM, 0.0077 µM and 0.0061 µM.
Regarding `Cc1cccc(-c2nc3cccnn3c2-c2ccnc(NCC3CC3)c2)c1` [Example 5, N-(Cyclopropylmethyl)-4-[2-(3-methylphenyl)imidazo[1,2-b]pyridazin-3-yl]pyridin-2-amine], the figures for the IC50 in test [1], in test [2] and in test [3] were 0.011 µM, 0.0025 µM and 0.0039 µM, respectively.
The corresponding values for `CCNC(=O)Nc1cc(-c2c(-c3ccc(F)c(C)c3)nc3cccnn23)ccn1` [Example compound 28-3, N-ethyl-N′-{4-[2-(4-fluoro-3-methylphenyl)imidazo[1,2-b]pyridazin-3-yl]pyridin-2-yl}urea] are 0.57 µM, 0.0079 µM and 0.045 µM.
As for `Cc1cccc(-c2nc3ccc(N(C)C)nn3c2-c2ccnc(NC3CCCCC3)c2)c1` [Example 7, 3-[2-(cyclohexylamino)pyridin-4-yl]-N,N-dimethyl-2-(3-methylphenyl)imidazo[1,2-b]pyridazin-6-amine], the half-maximal inhibitory concentration (IC50) was found to be 0.0051 µM in test [1], 0.0087 µM in test [2] and 0.0001 µM in test [3].
The corresponding values for `Cc1ccc(C(=O)Nc2cc(-c3c(-c4cccc(C)c4)nc4cccnn34)ccn2)cc1` [Example 20-1, 4-methyl-N-{4-[2-(3-methylphenyl)imidazo[1,2-b]pyridazin-3-yl]pyridin-2-yl}benzamide] are 0.073 µM, 0.0084 µM and 0.018 µM.
For `Cc1cc(-c2nc3cccnn3c2-c2ccnc(NC(=O)NC(C)C)c2)ccc1F` [Example compound 28-5, N-{4-[2-(4-fluoro-3-methylphenyl)imidazo[1,2-b]pyridazin-3-yl]pyridin-2-yl}-N′-isopropylurea], the IC50 was 0.064 µM in test [1], 0.014 µM in test [2] and 0.064 µM in test [3].
On to `Cc1cccc(-c2nc3cccnn3c2-c2ccnc(F)c2)c1` [Example 4, 3-(2-fluoropyridin-4-yl)-2-(3-methylphenyl)imidazo[1,2-b]pyridazine], for which the results for the IC50 in test [1], in test [2] and in test [3] were 1.52 µM, 0.16 µM and 0.32 µM, respectively.
Consider `Cc1cc(-c2nc3cccnn3c2-c2ccnc(NC(=O)c3ccc(F)cc3)c2)ccc1F` [Example 41-1, 4-fluoro-N-{4-[2-(4-fluoro-3-methylphenyl)imidazo[1,2-b]pyridazin-3-yl]pyridin-2-yl}benzamide], for which the half-inhibitory concentration (IC50) came to 0.035 µM in test [1], 0.0081 µM in test [2] and 0.015 µM in test [3].
The corresponding values for `Cc1cc(-c2nc3cccnn3c2-c2ccnc(NC(=O)NCCO)c2)ccc1F` [Example 51-11, N-{4-[2-(4-fluoro-3-methylphenyl)imidazo[1,2-b]pyridazin-3-yl]pyridin-2-yl}-N′-(2-hydroxyethyl)urea] are 0.064 µM, 0.007 µM and 0.01 µM.
As for `Cc1cc(-c2nc3cccnn3c2-c2ccnc(NC(=O)C3CC3)c2)ccc1F` [Example 42-3, N-{4-[2-(4-fluoro-3-methylphenyl)imidazo[1,2-b]pyridazin-3-yl]pyridin-2-yl}cyclopropanecarboxamide], the IC50 in test [1] amounted to 0.035 µM; in test [2] it was 0.0087 µM; in test [3], 0.0095 µM.

The values above are taken from patent publication US20080167314A1, “Condensed Imidazole Compound And Use Thereof” (priority 2004, published 2008).
